Experiments:
[1] = test system: patients older than 55 years without known diabetes but with vascular disease; experiment: Heart Outcomes Prevention Evaluation (HOPE) trial: new diagnosis of diabetes; format: in vivo; conditions: for New Diabetes With Glycated Hemoglobin ≧110% ULN, RR (95% CI) / New Diabetes With Oral Agents or Insulin and Glycated Hemoglobin ≧110% ULN, RR (95% CI) / New Diabetes With Oral Agents or Insulin, RR (95% CI) / New Diabetes, RR (95% CI): vs placebo
Method: The design of the Heart Outcomes Prevention Evaluation (HOPE) trial has been described in detail in previous publications. Briefly, individuals who were 55 years or older with no evidence of left ventricular dysfunction or heart failure and who had evidence of vascular disease or who had diabetes and 1 other risk factor were eligible as long as they had no indication or contraindication to receiving an ACE-inhibitor. The study was conducted in […] in 19 countries from 1994 to 1999. All patients provided written informed consent. Of 10576 eligible patients who participated in a run-in period during which they received 2.5 mg ramipril once daily for 1 week followed by matching placebo for 10 to 14 days, 1035 (9.8%) were excluded from randomization (3.2% for side effects, 3.7% for lack of consent). […] This Example focuses primarily on the latter group of patients. Of these patients, 5720 were randomized to receive up to 10 mg of ramipril once per day or equivalent placebo. One hundred sixty-seven patients who were randomized to receive a low dose (2.5 mg/day) of ramipril as part of the Study to Evaluate Carotid Ultrasound changes with Ramipril and Vitamin E (SECURE). All randomized patients were also randomized to receive 400 IU of Vitamin E or placebo. Follow-up visits occurred at 1 month and 6 months after randomization and then every 6 months (mean follow-up of 4.5 years). At each visit, we documented whether the diagnosis of diabetes had been made since the last visit. The primary outcome of this analysis is a new diagnosis of diabetes recorded on the basis of self-report. […] Hemoglobin A1c (HbA1c) levels and medications used among those diagnosed as having diabetes were also recorded. The HbA1c, levels were determined locally. Values higher than 110% of the upper limit of normal for each laboratory were considered to be biochemical confirmation of diabetes. Survival curves utilizing the Kaplan Meier and log-rank procedures were used to describe and compare the results in the 2 treatment groups. Because of the factorial design, all analyses were stratified for randomization to vitamin E or placebo. Subgroup analyses were conducted using tests of interaction in the Cox regression model. Design, Setting and Participants. The randomized, controlled Heart Outcomes Prevention Evaluation trial of 5720 patients older than 55 years without known diabetes but with vascular disease who were followed up for a mean of 4.5 years. The study included 267 hospitals in 19 countries and was conducted between 1994 and 1999. Intervention. Patients were randomly assigned to receive ramipril, up to 10 mg/d (n=2837), or I Main Outcome Measure. Diagnosis of diabetes determined from self-report at follow-up visits every 6 months, compared between the 2 groups.

patients with diabetes = experiment: HOPE trial: HbA1c levels among the patients with diabetes; format: in vivo; conditions: serial annual recordings, first 2 years
Method: The Study to Evaluate Carotid Ultrasound changes in patients treated with Ramipril and vitamin E (SECURE) in which fasting glucose increased more with placebo (15.8 mg/dL [0.41 mmols]) than with ramipril (9.6 mg/dL (0.25 mmols]; P=0.03). Among the patients with diabetes in the HOPE study, there was a significant reduction in HbA1c levels during serial annual recordings occurred during the first 2 years (absolute difference, 0.2%). In the UK Prospective Diabetes Study (UKPDS) and in the Captopril Prevention Project, patients randomized to receive ACE inhibitors had lower levels of HbA1c or less development of diabetes compared with those taking β-blockers or diuretics. However, it is not clear whether the differences in development of diabetes observed in these studies are due to a protective effect of ACE inhibitors or an adverse effect of β-blockers or diuretics.

[2] = controlling for primary events and development of MA or ON
[3] = ramipril up to 10 mg/d, n=2837, mean follow-up 4.5 years

Molecule: CCOC(=O)[C@H](CCc1ccccc1)N[C@@H](C)C(=O)N1[C@H](C(=O)O)C[C@@H]2CCC[C@@H]21 [ramipril]
- RR, footnote | | (New Diabetes With Oral Agents or Insulin and Glycated Hemoglobin ≧110% ULN): new diabetes with patient taking glucose-lowering therapy [1, 2]: | |Controlling for primary events and development of MA or ON, new diabetes with patient taking glucose-lowering therapy had a 0.52 RR (95% CI, 35-0.78).
- RR, footnote § (New Diabetes With Oral Agents or Insulin): new diabetes with patient taking glucose-lowering therapy [1, 2]: §Controlling for primary events and development of MA or ON, new diabetes with patient taking glucose-lowering therapy had a 0.58 RR (95% CI, 42-0.79).
- RR, footnote † (New Diabetes): new diabetes with glycated hemoglobin 110% [1, 2]: †Controlling for primary events and development of MA or ON, new diabetes with glycated hemoglobin 110% had a 0.67 RR (95% CI, 0..52-0.86).
- RR, footnote ‡ (New Diabetes With Glycated Hemoglobin ≧110% ULN): new diabetes with patient taking glucose-lowering therapy [1, 2]: ‡Controlling for primary events and development of MA or ON, new diabetes with patient taking glucose-lowering therapy had a 0.58 RR (95% CI, 44-0.88).
- proportion diagnosed with diabetes receiving an oral glucose lowering agent or insulin ([1]; ramipril group): 2.1%
- proportion of patients diagnosed to have diabetes and a documented glycated hemoglobin of 110% or more above the upper limit of normal ([1]; ramipril group): 1.8%
- proportion with all criteria (diabetes, glycated hemoglobin, glucose-lowering therapy) ([1]; ramipril group): 1.3%
- relative risk [RR] of new diagnosis of diabetes ([1]; ramipril group vs placebo group): 0.66
- individuals who reported a new diagnosis of diabetes (number) [1, 3]: 102 and One hundred and two
- individuals who reported a new diagnosis of diabetes (proportion) [1, 3]: 3.6%
- RR for diabetes in the subgroup who never took diuretics or β-blockers during the study ([1]; ramipril vs placebo): 0.62
- RR, all criteria (both) ([1]; ramipril vs placebo): 0.51
- RR, diabetes with oral glucose lowering agent or insulin (initiation of glucose-lowering therapy) ([1]; ramipril vs placebo): 0.56
- RR, diagnosis of diabetes and glycated hemoglobin 110% or more ([1]; ramipril vs placebo): 0.60
- New Diabetes With Glycated Hemoglobin ≧110% ULN, number of patients ([1]; stratum: no new MA or ON): 42
- New Diabetes With Glycated Hemoglobin ≧110% ULN, proportion (in parentheses) ([1]; stratum: no new MA or ON): 1.7
- New Diabetes With Oral Agents or Insulin and Glycated Hemoglobin ≧110% ULN, number of patients ([1]; stratum: no new MA or ON): 30
- New Diabetes With Oral Agents or Insulin and Glycated Hemoglobin ≧110% ULN, proportion (in parentheses) ([1]; stratum: no new MA or ON): 1.2
- New Diabetes With Oral Agents or Insulin, number of patients ([1]; stratum: no new MA or ON): 45
- New Diabetes With Oral Agents or Insulin, proportion (in parentheses) ([1]; stratum: no new MA or ON): 1.8
- New Diabetes, number of patients ([1]; stratum: no new MA or ON): 82
- New Diabetes, proportion (in parentheses) ([1]; stratum: no new MA or ON): 9.3
- New Diabetes With Glycated Hemoglobin ≧110% ULN, RR (95% CI) ([1]; stratum: no new MA or ON): 0.66 (0.48-0.98)
- New Diabetes With Oral Agents or Insulin and Glycated Hemoglobin ≧110% ULN, RR (95% CI) ([1]; stratum: no new MA or ON): 0.80 (0.38-0.84)
- New Diabetes With Oral Agents or Insulin, RR (95% CI) ([1]; stratum: no new MA or ON): 0.56 (0.39-0.81)
- New Diabetes, RR (95% CI) ([1]; stratum: no new MA or ON): 0.87 (0.51-0.89)
- New Diabetes With Glycated Hemoglobin ≧110% ULN, number of patients ([1]; stratum: no primary event): 45
- New Diabetes With Glycated Hemoglobin ≧110% ULN, proportion (in parentheses) ([1]; stratum: no primary event): 1.8
- New Diabetes With Oral Agents or Insulin and Glycated Hemoglobin ≧110% ULN, number of patients ([1]; stratum: no primary event): 32
- New Diabetes With Oral Agents or Insulin and Glycated Hemoglobin ≧110% ULN, proportion (in parentheses) ([1]; stratum: no primary event): 1.9
- New Diabetes With Oral Agents or Insulin, number of patients ([1]; stratum: no primary event): 54
- New Diabetes With Oral Agents or Insulin, proportion (in parentheses) ([1]; stratum: no primary event): 2.2
- New Diabetes, number of patients ([1]; stratum: no primary event): 93
- New Diabetes, proportion (in parentheses) ([1]; stratum: no primary event): 3.8
- New Diabetes With Glycated Hemoglobin ≧110% ULN, RR (95% CI) ([1]; stratum: no primary event): 0.81 (0.42-0.89)
- New Diabetes With Oral Agents or Insulin and Glycated Hemoglobin ≧110% ULN, RR (95% CI) ([1]; stratum: no primary event): 0.61 (0.33-.78)
- New Diabetes With Oral Agents or Insulin, RR (95% CI) ([1]; stratum: no primary event): 0.58 (0.42-0.82)
- New Diabetes, RR (95% CI) ([1]; stratum: no primary event): 0.69 (0.53-0.91)
- New Diabetes With Glycated Hemoglobin ≧110% ULN, number of patients ([1]; stratum: with new MA or ON): 10
- New Diabetes With Glycated Hemoglobin ≧110% ULN, proportion (in parentheses) ([1]; stratum: with new MA or ON): 2.8
- New Diabetes With Oral Agents or Insulin and Glycated Hemoglobin ≧110% ULN, number of patients ([1]; stratum: with new MA or ON): 6
- New Diabetes With Oral Agents or Insulin and Glycated Hemoglobin ≧110% ULN, proportion (in parentheses) ([1]; stratum: with new MA or ON): 1.7
- New Diabetes With Oral Agents or Insulin, number of patients ([1]; stratum: with new MA or ON): 14
- New Diabetes With Oral Agents or Insulin, proportion (in parentheses) ([1]; stratum: with new MA or ON): 3.9
- New Diabetes, number of patients ([1]; stratum: with new MA or ON): 20
- New Diabetes, proportion (in parentheses) ([1]; stratum: with new MA or ON): 5.6
- New Diabetes With Glycated Hemoglobin ≧110% ULN, RR (95% CI) ([1]; stratum: with new MA or ON): 0.47 (0.23-0.98)
- New Diabetes With Oral Agents or Insulin and Glycated Hemoglobin ≧110% ULN, RR (95% CI) ([1]; stratum: with new MA or ON): 0.32 (0.13-0.79)
- New Diabetes With Oral Agents or Insulin, RR (95% CI) ([1]; stratum: with new MA or ON): 0.61 (0.32-1.16)
- New Diabetes, RR (95% CI) ([1]; stratum: with new MA or ON): 0.85 (0.38-1.12)
- New Diabetes With Glycated Hemoglobin ≧110% ULN, number of patients ([1]; stratum: with primary event): 7
- New Diabetes With Glycated Hemoglobin ≧110% ULN, proportion (in parentheses) ([1]; stratum: with primary event): 1.9
- New Diabetes With Oral Agents or Insulin and Glycated Hemoglobin ≧110% ULN, number of patients ([1]; stratum: with primary event): 4
- New Diabetes With Oral Agents or Insulin and Glycated Hemoglobin ≧110% ULN, proportion (in parentheses) ([1]; stratum: with primary event): 1.1
- New Diabetes With Oral Agents or Insulin, number of patients ([1]; stratum: with primary event): 5
- New Diabetes With Oral Agents or Insulin, proportion (in parentheses) ([1]; stratum: with primary event): 1.3
- New Diabetes, number of patients ([1]; stratum: with primary event): 9
- New Diabetes, proportion (in parentheses) ([1]; stratum: with primary event): 2.4
- New Diabetes With Glycated Hemoglobin ≧110% ULN, RR (95% CI) ([1]; stratum: with primary event): 0.59 (0.24-1.43)
- New Diabetes With Oral Agents or Insulin and Glycated Hemoglobin ≧110% ULN, RR (95% CI) ([1]; stratum: with primary event): 0.64 (0.17-1.72)
- New Diabetes With Oral Agents or Insulin, RR (95% CI) ([1]; stratum: with primary event): 0.42 (0.15-1.14)
- New Diabetes, RR (95% CI) ([1]; stratum: with primary event): 0.48 (0.21-0.98)
- results among subgroups with different risk factors for developing diabetes (FIG. 2) ([1]; waist to hip ratio, BMI, hypertension history, β-blockers or diuretics at randomization): consistent
- reduction in HbA1c levels, absolute difference (patients with diabetes): 0.2%

Molecule: Vitamin E
- effect on diabetes compared with placebo ([1]; 400 IU of Vitamin E, factorial design): did not differ
